# Assays:
# [1] = Fluorescence quantum yield versus Alexa Fluor 555 reference; format: physicochemical; details: highest in FBS among DMSO, MeOH, PBS
# Experimental: (§1) Absorbance and fluorescence spectra of the FM fluorophores were measured in PBS and absolute methanol (MeOH) using fiber-optic HR2000 (200-1100 nm) and USB2000FL (350-1000 nm) spectrometers (Ocean Optics, Dunedin, Fla.), respectively. Fluorescence excitation was provided by a 2 mW, 532 nm laser diode. The fluorescence and absorbance spectra of FORMULA II and FORMULA IA were collected in dimethyl sulfoxide (DMSO) and fetal bovine serum (FBS), as well as MeOH and PBS. The quantum yield of FORMULA II and FORMULA IA in DMSO, MeOH, FBS and PBS was measured by comparing the integrated fluorescence emission of the fluorophores in each solvent to the emission of Alexa Fluor 555 (Invitrogen) in PBS (quantum yield=10%) as a reference standard under conditions of matched absorbance at the excitation wavelength. The LogD of each FM fluorophore at pH 7.5 was calculated using Marvin 5.0.3 software (ChemAxon, Budapest, Hungary).
# [2] = tested on: intervertebral discs (annulus fibrosus); experiment: Intraoperative imaging of the spine in a pig; format: in vivo, Yorkshire pig; details: 0.47 mg/kg IV, 5 h
# Experimental: Imaging was carried out at near infrared wavelenghts using a 400- to 700-nm “white” light (0.5 mW/cm^2) and a 725- to 775-nm NIR fluorescence excitation light (5 mW/cm^2). Fluorescence images were collected using exposure times ranging from 500 to 2000 msec. All images collected for comparison between vehicle-injected control animals and FM fluorophore-injected animals had the same exposure time and normalization. Color video images were collected on a separate optical channel using custom designed software. The excitation and emission LEDs and filter used for the FM fluorophores and Pam800 in the intraoperative imaging system are described as follows. For fluorescence excitation of FM 1-43, FM 2-10, FM 1-43FX and Formula IA, sixty 5-mm 470 nm LEDs ([…], Inc., Kyoto, Japan) fitted with 470±20 nm band pass (BP) excitation filters (Chroma Technology, Rockingham, Vt.) in custom holders were used, which produced a fluence rate on the imaging surface of 0.56 mW/cm^2. For fluorescence excitation of Formula II, FM 4-64, FM 4-64FX and FM 5-95, sixty 5-mm 535 nm LEDs fitted with 525±25 nm BP excitation filters were used, which produced a fluence rate on the imaging surface of 0.34 mW/cm^2. A 610±38 nm BP filter was used to detect fluorescence emission of FM 1-43, FM 2-10, Formula II, FM 1-43FX and Formula IA. To detect fluorescence emission of FM 4-64, FM 4-64FX and FM 5-95 a 720 nm long pass (LP) filter was used. For fluorescence excitation of Pam800, 348 5-mm 760 nm LEDs fitted with 764±17 nm BP excitation filters were used, which produced a fluence rate on the imaging surface of 8.73 mW/cm^2 and fluorescence emission was detected using a 824±24 nm BP emission filter. FORMULA IA was also evaluated in a Yorkshire pig. […] The pig was monitored under anesthesia during the drug incubation period, after which the animal was sacrificed. […] Tissues from mice, rats and pig were preserved for microscopic assessment and localization of fluorescence signal. […] Exposure times were adjusted between 5 and 2000 ms for fluorescence images.
# [3] = Absorbance and fluorescence spectra of FM fluorophores in solvents; format: physicochemical
# Experimental: as §1
smiles,measurement,setting,value
"CCCCN(CCCC)c1ccc(/C=C/c2cc[n+](CCC[N+](C)(C)C)cc2)cc1.[Br-].[Br-] [Formula IA, (E)-4-(4-(dibutylamino)styryl)-1-(3-(trimethylammonio)propyl)pyridinium dibromide]","fluorescence quantum yield, times higher in FBS",[1],5 times
same,contrast in the intervertebral discs of the pig,[2],dramatic positive contrast
same,origin of signal within the disc (sagittal and axial sectioning),[2],"majority of the signal was emanating from the annulus fibrosus, and not the nucleus pulposus"
same,microscopic fluorescence pattern in disc sections,[2]; fluorescence microscopy vs H&E,punctate and linear following the lamellae structures of the annulus fibrosus
same,Em nm (MeOH),[3]; emission maximum in MeOH,624 nm
same,Em nm (PBS),[3]; emission maximum in PBS,628 nm
same,Ex nm (MeOH),[3]; excitation maximum in MeOH,510 nm
same,Ex nm (PBS),[3]; excitation maximum in PBS,497 nm

# From patent US8357350B2, “Annulus fibrosus detection in intervertebral discs using molecular imaging agents” (General Electric Company, priority 2009, dated 2013)
